Test results: ChEMBL document CHEMBL2074386, “Saquinavir, an HIV protease inhibitor, is transported by P-glycoprotein” (J Pharmacol Exp Ther, 1998)

Key:
[1] = biological target: T1, ATP-dependent translocase ABCB1 (Homo sapiens, UniProt P08183); test: TP_TRANSPORTER: transepithelial transport (basal to apical) in HCT-8 cells; assay type: functional, cell-based
[2] = biological target: T1, ATP-dependent translocase ABCB1; test: TP_TRANSPORTER: inhibition of Rhodamine 123 transepithelial transport (basal to apical) (R123: 13 uM, Saquinavir: 20uM) in HCT-8 cells; assay type: functional, cell-based; conditions: hct-8, 20 µM

T1 sequence (P08183 whole entry): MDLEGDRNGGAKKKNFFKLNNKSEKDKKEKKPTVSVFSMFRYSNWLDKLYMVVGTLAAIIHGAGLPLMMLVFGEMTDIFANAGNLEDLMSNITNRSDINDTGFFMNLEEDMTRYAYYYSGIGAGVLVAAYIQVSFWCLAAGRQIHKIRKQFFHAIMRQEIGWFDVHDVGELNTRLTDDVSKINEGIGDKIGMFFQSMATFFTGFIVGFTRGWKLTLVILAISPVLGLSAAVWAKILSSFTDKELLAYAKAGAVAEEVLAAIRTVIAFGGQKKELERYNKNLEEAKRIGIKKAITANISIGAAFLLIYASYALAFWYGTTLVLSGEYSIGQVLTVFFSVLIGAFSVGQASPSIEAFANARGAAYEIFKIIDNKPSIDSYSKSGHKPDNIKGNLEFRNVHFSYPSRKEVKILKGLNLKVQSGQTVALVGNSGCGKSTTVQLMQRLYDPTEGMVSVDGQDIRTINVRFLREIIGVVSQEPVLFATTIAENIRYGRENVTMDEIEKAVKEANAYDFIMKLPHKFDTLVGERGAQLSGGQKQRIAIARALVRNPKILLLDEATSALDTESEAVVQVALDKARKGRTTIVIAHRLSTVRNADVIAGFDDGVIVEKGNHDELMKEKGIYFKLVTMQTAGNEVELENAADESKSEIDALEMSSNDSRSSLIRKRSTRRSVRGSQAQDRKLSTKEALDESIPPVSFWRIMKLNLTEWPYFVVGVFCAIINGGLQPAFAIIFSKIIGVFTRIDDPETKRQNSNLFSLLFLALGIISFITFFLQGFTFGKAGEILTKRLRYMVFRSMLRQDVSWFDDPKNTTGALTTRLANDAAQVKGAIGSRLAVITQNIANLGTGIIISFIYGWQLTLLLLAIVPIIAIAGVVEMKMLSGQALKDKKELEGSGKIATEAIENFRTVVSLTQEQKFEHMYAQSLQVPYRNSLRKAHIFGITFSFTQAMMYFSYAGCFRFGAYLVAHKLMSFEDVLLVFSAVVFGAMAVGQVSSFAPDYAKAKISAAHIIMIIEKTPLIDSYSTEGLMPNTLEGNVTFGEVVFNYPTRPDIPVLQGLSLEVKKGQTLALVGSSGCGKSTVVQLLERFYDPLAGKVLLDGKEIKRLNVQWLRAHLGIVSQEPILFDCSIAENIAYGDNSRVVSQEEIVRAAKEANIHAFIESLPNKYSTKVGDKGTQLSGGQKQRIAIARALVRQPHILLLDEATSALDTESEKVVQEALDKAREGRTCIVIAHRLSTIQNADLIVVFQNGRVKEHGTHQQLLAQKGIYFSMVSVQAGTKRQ

Compound | Activity [1] | Activity [2]
COC(=O)c1ccccc1-c1c2ccc(=N)cc-2oc2cc(N)ccc12.Cl [RHODAMINE123] | substrate [+] | 
CC(C)(C)NC(=O)[C@@H]1C[C@@H]2CCCC[C@@H]2CN1C[C@@H](O)[C@H](Cc1ccccc1)NC(=O)[C@H](CC(N)=O)NC(=O)c1ccc2ccccc2n1 | substrate [+] | inhibitor [(at a rough estimate) 45 % of control]
